Among the data in ChEMBL document CHEMBL3046023, “Synthesis, in vitro cytotoxicity, and anti-microbial studies of 1,4-bis(4-substituted-5-mercapto-1,2,4-triazol-3-yl)butanes” (Med Chem Res, 2012) are MIC and IC50 values, retold here.

Converted amounts (≈) assume the structure as drawn.

In one experiment the test system is Staphylococcus aureus. In words: Antibacterial activity against Staphylococcus aureus ATCC 25923 after 24 hr by serial dilution method. It counts as functional. To be noted: ATCC 25923, 24 h.
The test system of a further experiment is MDA-MB-231. In words: Cytotoxicity against Homo sapiens (human) MDA-MB-231 cells after 72 hr by MTT assay. It counts as functional, cell-based. To be noted: MDA-MB-231, 72 h.
The test system of another experiment is Pseudomonas aeruginosa. In words: Antibacterial activity against Pseudomonas aeruginosa ATCC 27853 after 24 hr by serial dilution method. It is filed as functional. To be noted: ATCC 27853, 24 h.
The next experiment concerns HT-29. In words: Cytotoxicity against Homo sapiens (human) HT-29 cells after 72 hr by MTT assay. It is filed as functional, cell-based. To be noted: HT-29, 72 h.
In the next experiment the test system is A549. In words: Cytotoxicity against Homo sapiens (human) A549 cells after 72 hr by MTT assay. To be noted: A549, 72 h. It counts as functional, cell-based.
The test system of another experiment is Bacillus subtilis. In words: Antibacterial activity against Bacillus subtilis ATCC 6633 after 24 hr by serial dilution method. It is filed as functional. As to conditions: ATCC 6633, 24 h.
For a further experiment, the system named is Escherichia coli. In words: Antibacterial activity against Escherichia coli ATCC 25922 after 24 hr by serial dilution method. It is filed as functional. As to conditions: ATCC 25922, 24 h.

Take `Cc1ccc(-n2c(CCCCc3nnc(SCC(=O)NN)n3-c3ccc(C)cc3)nnc2SCC(=O)NN)cc1`: the minimum inhibitory concentration (MIC) is 12.5 µg/mL (≈ 21.5 µM) in the experiment with Staphylococcus aureus, 100 µg/mL (≈ 172 µM) against Pseudomonas aeruginosa, 12.5 µg/mL (≈ 21.5 µM) with Bacillus subtilis and 12.5 µg/mL (≈ 21.5 µM) in the experiment on Escherichia coli. Further, the IC50 in the experiment with MDA-MB-231 turned out to be 32.2 µM; in the experiment on HT-29, 31.2 µM; in the experiment on A549 it was 36.9 µM.

For `Cc1cccc(-n2c(CCCCc3nnc(SCC(=O)NN)n3-c3cccc(C)c3)nnc2SCC(=O)NN)c1`, the MIC with Staphylococcus aureus, in the experiment with Bacillus subtilis and with Escherichia coli was 25 µg/mL (≈ 43 µM) in each case. For the same compound, the half-maximal inhibitory concentration (IC50) in the experiment with MDA-MB-231 was determined as 40.2 µM; with HT-29, 38.2 µM; with A549, 39.1 µM.

With `CCOc1ccc(-n2c(CCCCc3nnc(SCC(=O)NN)n3-c3ccc(OCC)cc3)nnc2SCC(=O)NN)cc1`, the MIC with Staphylococcus aureus stood at 12.5 µg/mL (≈ 19.5 µM); with Pseudomonas aeruginosa, 12.5 µg/mL (≈ 19.5 µM); in the experiment on Bacillus subtilis, 6.25 µg/mL (≈ 9.75 µM); against Escherichia coli, 12.5 µg/mL (≈ 19.5 µM). The IC50 with MDA-MB-231 was found to be 13.2 µM; with HT-29, 5.16 µM; in the experiment on A549, 9.13 µM.

As for `NNC(=O)CSc1nnc(CCCCc2nnc(SCC(=O)NN)n2C2CCCCC2)n1C1CCCCC1`, the results for the IC50 in the experiment with MDA-MB-231, in the experiment on HT-29 and in the experiment with A549 were 70.2 µM, 66.2 µM and 65.3 µM, respectively. In addition, the minimal inhibitory concentration (MIC) against Bacillus subtilis came to 100 µg/mL (≈ 177 µM); in the experiment with Escherichia coli, 50 µg/mL (≈ 88.5 µM).

On to `CCCCn1c(CCCCc2nnc(SCC(=O)NN)n2CCCC)nnc1SCC(=O)NN`, for which the IC50 is 59.8 µM in the experiment with MDA-MB-231, 63.4 µM with HT-29 and 69.3 µM in the experiment on A549. The minimal inhibitory concentration (MIC) in the experiment with Bacillus subtilis and against Escherichia coli was 100 µg/mL (≈ 195 µM) in each case.

`CCOC(=O)CSc1nnc(CCCCc2nnc(SCC(=O)OCC)n2C2CCCCC2)n1C1CCCCC1`: the IC50 with MDA-MB-231 worked out at 70.4 µM; with HT-29, 65.3 µM; in the experiment with A549 it was 51.9 µM. For the same compound, the MIC against Bacillus subtilis and against Escherichia coli was 100 µg/mL (≈ 169 µM) in each case.

In the case of `CCCCn1c(CCCCc2nnc(SCC(=O)OCC)n2CCCC)nnc1SCC(=O)OCC`, the IC50 in the experiment on MDA-MB-231 was 71.4 µM; in the experiment with HT-29, 69.8 µM; with A549, 61.5 µM. The minimal inhibitory concentration (MIC) against Bacillus subtilis and against Escherichia coli was 100 µg/mL (≈ 185 µM) each time.

With `NNC(=O)CSc1nnc(CCCCc2nnc(SCC(=O)NN)n2-c2ccccc2)n1-c1ccccc1`, the MIC against Staphylococcus aureus came out at 25 µg/mL (≈ 45.2 µM); against Pseudomonas aeruginosa it was 100 µg/mL (≈ 181 µM); in the experiment with Bacillus subtilis, 25 µg/mL (≈ 45.2 µM); against Escherichia coli, 25 µg/mL (≈ 45.2 µM). Moreover, the IC50 turned out to be 69.9 µM in the experiment on MDA-MB-231, 65.3 µM with HT-29 and 63.2 µM in the experiment with A549.

On to `CCOC(=O)CSc1nnc(CCCCc2nnc(SCC(=O)OCC)n2-c2ccc(C)cc2)n1-c1ccc(C)cc1`, for which the minimal inhibitory concentration (MIC) in the experiment with Staphylococcus aureus, in the experiment on Pseudomonas aeruginosa, against Bacillus subtilis and in the experiment on Escherichia coli was 100 µg/mL (≈ 164 µM) throughout. Also, the IC50 in the experiment on MDA-MB-231 amounted to 24.3 µM; in the experiment with HT-29, 13.5 µM; in the experiment with A549 it was 9.13 µM.

In the case of `CCOC(=O)CSc1nnc(CCCCc2nnc(SCC(=O)OCC)n2-c2cccc(C)c2)n1-c1cccc(C)c1`, the minimal inhibitory concentration (MIC) was 100 µg/mL (≈ 164 µM) against Staphylococcus aureus, 100 µg/mL (≈ 164 µM) in the experiment on Pseudomonas aeruginosa, 50 µg/mL (≈ 82.1 µM) in the experiment on Bacillus subtilis and 50 µg/mL (≈ 82.1 µM) against Escherichia coli. Also, the half-inhibitory concentration (IC50) in the experiment on MDA-MB-231 was determined as 25.2 µM; with HT-29 it was 25.8 µM; with A549, 23.3 µM.

As to `CCOC(=O)CSc1nnc(CCCCc2nnc(SCC(=O)OCC)n2-c2ccc(OCC)cc2)n1-c1ccc(OCC)cc1`, the MIC with Staphylococcus aureus amounted to 50 µg/mL (≈ 74.8 µM); in the experiment with Pseudomonas aeruginosa it was 100 µg/mL (≈ 150 µM); against Bacillus subtilis, 25 µg/mL (≈ 37.4 µM); against Escherichia coli, 25 µg/mL (≈ 37.4 µM). The half-maximal inhibitory concentration (IC50) in the experiment on MDA-MB-231 came to 15.1 µM; with HT-29 it was 13.2 µM; in the experiment with A549, 9.3 µM.

Take `CCOc1ccc(-n2c(CCCCc3nnc(SC(=O)N(CC)CC)n3-c3ccc(OCC)cc3)nnc2SC(=O)N(CC)CC)cc1`: the values for the IC50 with MDA-MB-231, with HT-29 and in the experiment with A549 were 71.6 µM, 75 µM and 51.9 µM, respectively. Also, the minimum inhibitory concentration (MIC) against Bacillus subtilis is 50 µg/mL (≈ 71.9 µM); against Escherichia coli, 100 µg/mL (≈ 144 µM).

As for `CCN(CC)C(=O)Sc1nnc(CCCCc2nnc(SC(=O)N(CC)CC)n2C2CCCCC2)n1C1CCCCC1`, the IC50 with MDA-MB-231 was 66.2 µM; in the experiment with HT-29, 69.9 µM; with A549 it was 51.8 µM. The MIC in the experiment on Bacillus subtilis and against Escherichia coli was 100 µg/mL (≈ 162 µM) each time.

With `CCCCn1c(CCCCc2nnc(SC(=O)N(CC)CC)n2CCCC)nnc1SC(=O)N(CC)CC`, the figures for the half-maximal inhibitory concentration (IC50) with MDA-MB-231, with HT-29 and with A549 were 70.3 µM, 64.5 µM and 63.1 µM, respectively.

On to `CCOC(=O)CSc1nnc(CCCCc2nnc(SCC(=O)OCC)n2-c2ccccc2)n1-c1ccccc1`, for which the MIC with Staphylococcus aureus turned out to be 100 µg/mL (≈ 172 µM); against Pseudomonas aeruginosa, 100 µg/mL (≈ 172 µM); against Bacillus subtilis, 100 µg/mL (≈ 172 µM); against Escherichia coli it was 50 µg/mL (≈ 86.1 µM). Besides, the IC50 with MDA-MB-231 turned out to be 32.2 µM; with HT-29, 51.2 µM; in the experiment with A549, 34.5 µM.

As to `CCN(CC)C(=O)Sc1nnc(CCCCc2nnc(SC(=O)N(CC)CC)n2-c2ccccc2)n1-c1ccccc1`, the MIC in the experiment with Staphylococcus aureus is 50 µg/mL (≈ 82.4 µM); against Pseudomonas aeruginosa, 50 µg/mL (≈ 82.4 µM); in the experiment with Bacillus subtilis, 25 µg/mL (≈ 41.2 µM); against Escherichia coli, 12.5 µg/mL (≈ 20.6 µM). Moreover, the results for the IC50 with MDA-MB-231, in the experiment on HT-29 and with A549 were 14.9 µM, 14.3 µM and 19.3 µM, respectively.

Turning to `CCN(CC)C(=O)Sc1nnc(CCCCc2nnc(SC(=O)N(CC)CC)n2-c2ccc(C)cc2)n1-c1ccc(C)cc1`, the MIC in the experiment on Staphylococcus aureus was 25 µg/mL (≈ 39.4 µM); against Pseudomonas aeruginosa, 25 µg/mL (≈ 39.4 µM); against Bacillus subtilis, 12.5 µg/mL (≈ 19.7 µM); with Escherichia coli, 12.5 µg/mL (≈ 19.7 µM). The IC50 was 8.17 µM in the experiment on MDA-MB-231, 3.45 µM in the experiment on HT-29 and 3.23 µM in the experiment with A549.

For the compound `CCN(CC)C(=O)Sc1nnc(CCCCc2nnc(SC(=O)N(CC)CC)n2-c2cccc(C)c2)n1-c1cccc(C)c1`, the minimal inhibitory concentration (MIC) stood at 50 µg/mL (≈ 78.8 µM) in the experiment on Staphylococcus aureus, 25 µg/mL (≈ 39.4 µM) with Pseudomonas aeruginosa, 25 µg/mL (≈ 39.4 µM) against Bacillus subtilis and 12.5 µg/mL (≈ 19.7 µM) in the experiment with Escherichia coli. The concentration for half-maximal inhibition (IC50) in the experiment with MDA-MB-231 was 17.2 µM; with HT-29, 10.2 µM; in the experiment on A549, 15.2 µM.

As to `CC1(C)S[C@@H]2[C@H](NC(=O)[C@H](N)c3ccccc3)C(=O)N2[C@H]1C(=O)O` [AMPICILLIN], the minimum inhibitory concentration (MIC) with Staphylococcus aureus was 6.25 µg/mL (≈ 17.9 µM); against Pseudomonas aeruginosa it was 12.5 µg/mL (≈ 35.8 µM); in the experiment on Bacillus subtilis it was 12.5 µg/mL (≈ 35.8 µM); with Escherichia coli, 6.25 µg/mL (≈ 17.9 µM).

As for `COc1cccc2c1C(=O)c1c(O)c3c(c(O)c1C2=O)C[C@@](O)(C(=O)CO)C[C@@H]3O[C@H]1C[C@H](N)[C@H](O)[C@H](C)O1` [DOXORUBICIN], the IC50 in the experiment with MDA-MB-231 was 0.1 µM; in the experiment on HT-29, 0.07 µM; in the experiment with A549, 0.09 µM.
